Experiments:
[1] = target: Serine/threonine-protein kinase 25 (Homo sapiens) (UniProt O00506); assay: Inhibition of human recombinant YSK1 at 40 nM related to control ULK1
[2] = target: Serine/threonine-protein kinase SIK2 (Homo sapiens) (UniProt Q9H0K1); assay: Inhibition of human recombinant QIK at 40 nM in presence of ATP by radiometric assay relative to control
[3] = target: Serine/threonine-protein kinase pim-1 (Homo sapiens) (UniProt P11309); assay: Inhibition of human recombinant PIM1 at 40 nM in presence of ATP by radiometric assay relative to control
Sequence of Serine/threonine-protein kinase pim-1 (Homo sapiens) (P11309 whole entry, looked up): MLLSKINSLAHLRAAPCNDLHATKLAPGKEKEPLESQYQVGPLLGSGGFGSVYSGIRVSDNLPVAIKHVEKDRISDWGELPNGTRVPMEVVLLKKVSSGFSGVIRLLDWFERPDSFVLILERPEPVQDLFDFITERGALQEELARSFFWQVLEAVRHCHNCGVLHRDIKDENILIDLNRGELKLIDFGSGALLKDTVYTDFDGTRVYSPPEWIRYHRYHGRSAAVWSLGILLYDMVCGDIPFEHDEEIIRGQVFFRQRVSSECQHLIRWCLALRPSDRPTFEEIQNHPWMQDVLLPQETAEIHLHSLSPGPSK

[4] = target: Dual specificity tyrosine-phosphorylation-regulated kinase 1B (Homo sapiens) (UniProt Q9Y463); assay: Inhibition of human recombinant DYRK1B at 40 nM related to control ULK1
Sequence of Dual specificity tyrosine-phosphorylation-regulated kinase 1B (Homo sapiens) (Q9Y463 whole entry, looked up): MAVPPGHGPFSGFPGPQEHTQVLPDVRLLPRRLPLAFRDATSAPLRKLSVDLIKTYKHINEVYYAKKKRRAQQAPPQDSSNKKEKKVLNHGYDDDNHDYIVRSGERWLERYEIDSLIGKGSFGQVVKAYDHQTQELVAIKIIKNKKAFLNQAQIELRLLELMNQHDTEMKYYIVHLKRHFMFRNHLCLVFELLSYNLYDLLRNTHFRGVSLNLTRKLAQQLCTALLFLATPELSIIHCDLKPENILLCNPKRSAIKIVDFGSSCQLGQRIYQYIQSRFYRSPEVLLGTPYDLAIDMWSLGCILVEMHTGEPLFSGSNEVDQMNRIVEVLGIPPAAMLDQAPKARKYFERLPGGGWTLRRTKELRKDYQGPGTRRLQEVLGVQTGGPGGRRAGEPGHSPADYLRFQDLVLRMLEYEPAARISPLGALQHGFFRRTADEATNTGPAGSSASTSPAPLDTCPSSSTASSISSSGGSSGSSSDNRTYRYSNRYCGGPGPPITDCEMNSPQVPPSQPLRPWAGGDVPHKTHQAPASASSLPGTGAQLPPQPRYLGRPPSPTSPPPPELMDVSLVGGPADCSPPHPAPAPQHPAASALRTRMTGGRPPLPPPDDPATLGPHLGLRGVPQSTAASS

[5] = target: cAMP-dependent protein kinase catalytic subunit beta (Homo sapiens) (UniProt P22694); assay: Inhibition of human recombinant PKACbeta at 500 nM in presence of ATP by radiometric assay relative to control
[6] = target: T1, Phosphorylase b kinase gamma catalytic chain, liver/testis isoform (Homo sapiens) (UniProt P15735); assay: Inhibition of human recombinant PHKg2 at 500 nM in presence of ATP by radiometric assay relative to control
T1 sequence (whole entry): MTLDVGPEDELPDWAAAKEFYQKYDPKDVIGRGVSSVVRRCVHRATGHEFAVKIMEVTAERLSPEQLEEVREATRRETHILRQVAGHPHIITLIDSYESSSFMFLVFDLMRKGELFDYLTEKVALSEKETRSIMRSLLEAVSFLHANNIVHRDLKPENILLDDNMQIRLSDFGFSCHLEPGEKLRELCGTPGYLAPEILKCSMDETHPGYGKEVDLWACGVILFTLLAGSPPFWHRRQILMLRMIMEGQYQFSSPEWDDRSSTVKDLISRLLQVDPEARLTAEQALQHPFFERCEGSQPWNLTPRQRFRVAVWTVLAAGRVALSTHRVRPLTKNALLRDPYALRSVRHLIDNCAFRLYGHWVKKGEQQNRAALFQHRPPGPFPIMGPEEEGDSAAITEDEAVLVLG

[7] = target: Serine/threonine-protein kinase N1 (Homo sapiens) (UniProt Q16512); assay: Inhibition of human recombinant PKN1 at 500 nM in presence of ATP by radiometric assay relative to control
Sequence of Serine/threonine-protein kinase N1 (Homo sapiens) (Q16512 2-942 limits assumed): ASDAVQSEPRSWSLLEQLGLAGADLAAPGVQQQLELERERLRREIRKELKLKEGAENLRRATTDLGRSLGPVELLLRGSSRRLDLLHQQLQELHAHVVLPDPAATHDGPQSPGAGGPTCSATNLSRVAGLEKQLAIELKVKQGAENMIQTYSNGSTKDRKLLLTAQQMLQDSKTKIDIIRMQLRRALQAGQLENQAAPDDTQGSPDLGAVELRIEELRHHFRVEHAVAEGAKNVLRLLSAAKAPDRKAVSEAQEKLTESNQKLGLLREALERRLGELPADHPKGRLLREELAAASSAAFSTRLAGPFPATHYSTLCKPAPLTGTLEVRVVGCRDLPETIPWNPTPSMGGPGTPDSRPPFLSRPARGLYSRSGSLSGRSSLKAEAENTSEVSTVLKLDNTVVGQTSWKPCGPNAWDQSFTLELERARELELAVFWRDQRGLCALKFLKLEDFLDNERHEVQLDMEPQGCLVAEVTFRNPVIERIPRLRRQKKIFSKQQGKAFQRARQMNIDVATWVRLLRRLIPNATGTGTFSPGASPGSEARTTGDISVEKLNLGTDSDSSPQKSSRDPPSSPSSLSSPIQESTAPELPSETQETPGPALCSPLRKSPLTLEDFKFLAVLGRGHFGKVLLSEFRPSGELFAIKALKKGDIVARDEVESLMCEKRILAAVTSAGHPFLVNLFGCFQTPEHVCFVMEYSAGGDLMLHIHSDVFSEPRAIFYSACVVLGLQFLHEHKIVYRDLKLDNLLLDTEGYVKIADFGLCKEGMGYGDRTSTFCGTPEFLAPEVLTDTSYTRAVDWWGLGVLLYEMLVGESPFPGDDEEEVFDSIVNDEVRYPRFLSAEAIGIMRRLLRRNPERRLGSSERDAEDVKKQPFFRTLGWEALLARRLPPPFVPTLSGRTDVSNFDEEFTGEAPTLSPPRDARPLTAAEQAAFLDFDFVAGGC

[8] = target: T2, Mitogen-activated protein kinase kinase kinase 3 (Homo sapiens) (UniProt Q99759); assay: Inhibition of human recombinant MAP3K3 at 500 nM related to control ULK1
T2 sequence (whole entry): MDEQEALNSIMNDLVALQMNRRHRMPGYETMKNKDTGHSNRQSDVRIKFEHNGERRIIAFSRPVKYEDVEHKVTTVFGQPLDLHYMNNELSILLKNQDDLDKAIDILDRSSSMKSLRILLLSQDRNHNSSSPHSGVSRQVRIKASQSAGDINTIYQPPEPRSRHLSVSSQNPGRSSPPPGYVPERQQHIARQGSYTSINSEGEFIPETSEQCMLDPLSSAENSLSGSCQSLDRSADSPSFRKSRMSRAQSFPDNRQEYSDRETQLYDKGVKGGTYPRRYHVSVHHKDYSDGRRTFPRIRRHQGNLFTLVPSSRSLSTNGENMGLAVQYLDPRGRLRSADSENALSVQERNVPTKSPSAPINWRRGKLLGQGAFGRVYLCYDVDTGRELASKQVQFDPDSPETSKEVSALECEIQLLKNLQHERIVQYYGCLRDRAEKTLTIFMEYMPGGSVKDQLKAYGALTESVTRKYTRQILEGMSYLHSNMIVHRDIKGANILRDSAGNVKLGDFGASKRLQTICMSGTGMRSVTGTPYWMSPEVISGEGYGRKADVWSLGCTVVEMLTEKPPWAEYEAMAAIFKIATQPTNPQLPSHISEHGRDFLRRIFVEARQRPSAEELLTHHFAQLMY

Homo sapiens = species: Homo sapiens; assay: Inhibition of human recombinant CK1d at 500 nM related to control ULK1
[9] = target: 3-phosphoinositide-dependent protein kinase 1 (Homo sapiens) (UniProt O15530); assay: Inhibition of human recombinant PDK1 at 500 nM in presence of ATP by radiometric assay relative to control
Sequence of 3-phosphoinositide-dependent protein kinase 1 (Homo sapiens) (O15530 whole entry, looked up): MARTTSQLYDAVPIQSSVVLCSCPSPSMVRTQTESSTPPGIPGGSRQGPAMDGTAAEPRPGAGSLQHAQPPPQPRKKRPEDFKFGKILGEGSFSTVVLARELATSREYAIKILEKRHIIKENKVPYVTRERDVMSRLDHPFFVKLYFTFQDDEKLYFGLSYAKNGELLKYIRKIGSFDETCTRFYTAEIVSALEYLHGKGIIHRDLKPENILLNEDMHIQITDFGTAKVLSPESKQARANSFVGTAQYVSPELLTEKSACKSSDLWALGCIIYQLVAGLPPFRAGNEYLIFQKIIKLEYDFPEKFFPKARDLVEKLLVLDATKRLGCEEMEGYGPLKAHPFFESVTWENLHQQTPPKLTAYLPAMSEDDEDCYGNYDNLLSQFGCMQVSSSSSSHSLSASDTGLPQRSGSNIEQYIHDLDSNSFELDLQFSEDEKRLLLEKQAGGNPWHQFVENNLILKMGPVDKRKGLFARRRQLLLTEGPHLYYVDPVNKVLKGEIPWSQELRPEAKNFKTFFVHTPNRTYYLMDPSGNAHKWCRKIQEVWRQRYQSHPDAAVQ

[10] = target: T3, Testis-specific serine/threonine-protein kinase 3 (Homo sapiens) (UniProt Q96PN8); assay: Inhibition of human recombinant TSSK3 at 15 nM in presence of ATP by radiometric assay relative to control
T3 sequence (whole entry): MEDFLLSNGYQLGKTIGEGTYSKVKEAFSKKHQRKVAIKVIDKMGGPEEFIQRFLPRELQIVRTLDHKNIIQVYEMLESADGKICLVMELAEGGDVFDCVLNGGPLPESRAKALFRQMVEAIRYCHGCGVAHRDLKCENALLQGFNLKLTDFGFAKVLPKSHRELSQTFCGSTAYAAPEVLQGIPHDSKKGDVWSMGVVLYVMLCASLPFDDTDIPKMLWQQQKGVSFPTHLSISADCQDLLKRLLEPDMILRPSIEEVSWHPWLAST

[11] = target: Fibroblast growth factor receptor 3 (Homo sapiens) (UniProt P22607); assay: Inhibition of human recombinant FGFR3 at 15 nM in presence of ATP by radiometric assay relative to control
Sequence of Fibroblast growth factor receptor 3 (Homo sapiens) (P22607 23-806 limits assumed): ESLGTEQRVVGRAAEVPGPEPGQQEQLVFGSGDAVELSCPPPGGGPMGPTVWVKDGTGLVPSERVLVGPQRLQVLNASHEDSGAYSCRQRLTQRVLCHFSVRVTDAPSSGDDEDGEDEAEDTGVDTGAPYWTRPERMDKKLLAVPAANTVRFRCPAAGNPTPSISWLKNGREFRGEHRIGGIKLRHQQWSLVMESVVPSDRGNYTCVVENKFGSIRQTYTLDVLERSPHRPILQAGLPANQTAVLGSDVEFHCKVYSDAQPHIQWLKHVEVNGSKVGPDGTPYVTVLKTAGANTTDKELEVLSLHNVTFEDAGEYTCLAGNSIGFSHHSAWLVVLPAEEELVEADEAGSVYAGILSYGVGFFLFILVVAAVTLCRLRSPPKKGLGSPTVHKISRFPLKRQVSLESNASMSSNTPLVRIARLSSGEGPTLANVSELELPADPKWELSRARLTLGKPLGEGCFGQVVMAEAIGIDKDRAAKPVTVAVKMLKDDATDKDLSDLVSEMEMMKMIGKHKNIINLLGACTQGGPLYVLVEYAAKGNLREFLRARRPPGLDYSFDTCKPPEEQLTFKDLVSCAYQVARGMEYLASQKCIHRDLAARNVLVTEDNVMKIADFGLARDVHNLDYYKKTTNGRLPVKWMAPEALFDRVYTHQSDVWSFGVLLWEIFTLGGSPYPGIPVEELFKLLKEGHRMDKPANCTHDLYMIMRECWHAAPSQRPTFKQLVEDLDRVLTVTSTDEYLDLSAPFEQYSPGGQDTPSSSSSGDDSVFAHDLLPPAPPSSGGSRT

[12] = target: T4, Serine/threonine-protein kinase 3 (Homo sapiens) (UniProt Q13188); assay: Inhibition of human recombinant MST2 at 15 nM in presence of ATP by radiometric assay relative to control
T4 sequence (whole entry): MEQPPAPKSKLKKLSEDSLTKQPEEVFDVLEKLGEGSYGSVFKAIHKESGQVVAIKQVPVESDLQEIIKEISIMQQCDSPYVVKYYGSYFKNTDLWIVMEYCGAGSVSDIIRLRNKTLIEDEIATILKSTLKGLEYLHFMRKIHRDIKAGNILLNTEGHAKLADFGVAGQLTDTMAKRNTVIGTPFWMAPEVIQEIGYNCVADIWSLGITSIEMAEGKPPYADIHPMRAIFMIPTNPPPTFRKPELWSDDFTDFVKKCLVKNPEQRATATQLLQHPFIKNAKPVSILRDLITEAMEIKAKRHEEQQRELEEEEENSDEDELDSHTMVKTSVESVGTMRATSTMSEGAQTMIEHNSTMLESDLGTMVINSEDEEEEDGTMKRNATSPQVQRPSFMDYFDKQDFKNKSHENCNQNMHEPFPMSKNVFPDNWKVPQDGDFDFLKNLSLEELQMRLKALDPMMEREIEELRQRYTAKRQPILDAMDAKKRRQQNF

[13] = target: Mitogen-activated protein kinase 1 (Homo sapiens) (UniProt P28482); assay: Inhibition of human recombinant Erk2 at 15 nM in presence of ATP by radiometric assay relative to control
Sequence of Mitogen-activated protein kinase 1 (Homo sapiens) (P28482 whole entry): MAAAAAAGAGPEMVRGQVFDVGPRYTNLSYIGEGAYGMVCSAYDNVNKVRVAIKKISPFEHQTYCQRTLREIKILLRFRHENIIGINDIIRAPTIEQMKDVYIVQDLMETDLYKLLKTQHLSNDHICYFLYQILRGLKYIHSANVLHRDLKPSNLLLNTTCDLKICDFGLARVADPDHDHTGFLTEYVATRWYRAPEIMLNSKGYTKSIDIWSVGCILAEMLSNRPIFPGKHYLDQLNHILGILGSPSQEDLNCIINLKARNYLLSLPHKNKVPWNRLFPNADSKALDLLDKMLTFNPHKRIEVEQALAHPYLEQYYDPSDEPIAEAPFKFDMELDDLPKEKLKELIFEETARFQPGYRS

Sequence of Serine/threonine-protein kinase SIK2 (Homo sapiens) (Q9H0K1 whole entry, looked up): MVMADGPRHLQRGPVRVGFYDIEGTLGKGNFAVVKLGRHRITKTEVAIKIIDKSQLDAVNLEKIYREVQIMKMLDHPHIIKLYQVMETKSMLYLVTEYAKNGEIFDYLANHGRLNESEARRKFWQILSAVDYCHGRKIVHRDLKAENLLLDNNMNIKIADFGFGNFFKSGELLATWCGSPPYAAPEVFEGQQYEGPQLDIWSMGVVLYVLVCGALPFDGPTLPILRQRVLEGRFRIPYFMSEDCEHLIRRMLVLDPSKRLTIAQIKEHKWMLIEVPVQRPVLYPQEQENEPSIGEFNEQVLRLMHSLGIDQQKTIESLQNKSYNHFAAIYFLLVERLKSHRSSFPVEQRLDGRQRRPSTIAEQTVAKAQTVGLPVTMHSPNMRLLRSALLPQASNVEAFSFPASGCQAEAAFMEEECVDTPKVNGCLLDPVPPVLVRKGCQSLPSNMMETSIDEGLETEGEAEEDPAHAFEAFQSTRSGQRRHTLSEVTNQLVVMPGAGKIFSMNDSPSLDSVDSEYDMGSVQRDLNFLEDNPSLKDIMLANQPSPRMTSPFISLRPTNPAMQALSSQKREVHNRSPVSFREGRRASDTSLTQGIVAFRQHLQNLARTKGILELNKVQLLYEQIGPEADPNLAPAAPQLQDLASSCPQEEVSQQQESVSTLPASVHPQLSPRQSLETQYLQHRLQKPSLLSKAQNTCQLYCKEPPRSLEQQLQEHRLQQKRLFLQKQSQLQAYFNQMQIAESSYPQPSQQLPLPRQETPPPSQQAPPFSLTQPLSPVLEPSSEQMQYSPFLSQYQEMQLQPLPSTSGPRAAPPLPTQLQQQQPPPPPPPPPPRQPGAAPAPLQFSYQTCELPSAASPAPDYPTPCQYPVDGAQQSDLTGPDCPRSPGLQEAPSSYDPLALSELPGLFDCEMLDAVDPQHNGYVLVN
Sequence of Serine/threonine-protein kinase 25 (Homo sapiens) (O00506 whole entry, looked up): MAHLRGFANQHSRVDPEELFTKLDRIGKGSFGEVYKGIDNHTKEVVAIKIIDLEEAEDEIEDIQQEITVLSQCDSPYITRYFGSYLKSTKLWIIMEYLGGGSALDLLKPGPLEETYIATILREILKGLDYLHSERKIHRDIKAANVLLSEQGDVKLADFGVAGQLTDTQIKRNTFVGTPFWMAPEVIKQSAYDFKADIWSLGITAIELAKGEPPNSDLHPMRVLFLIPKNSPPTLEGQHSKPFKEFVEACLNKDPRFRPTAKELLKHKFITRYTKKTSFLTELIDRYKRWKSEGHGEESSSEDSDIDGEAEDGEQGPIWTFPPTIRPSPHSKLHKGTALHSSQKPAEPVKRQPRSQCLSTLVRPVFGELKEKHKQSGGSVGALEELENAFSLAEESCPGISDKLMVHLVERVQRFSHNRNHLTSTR

In the case of `O=C(N[C@@H](C1CC1)C(F)(F)F)c1cc(-c2cnn3cc(-c4ccc(F)cc4)cnc23)cs1`, the fold change (FC) [1] is reported as 0, the inhibition [2] is reported as 54% and the inhibition [3] is reported as 5%. The fold change (FC) [4] was 0.42.
`CNC(=O)c1ccccc1Oc1nc(Nc2cc(OC)c(OC)c(OC)c2)ncc1Br` showed an inhibition [5] of 0%, an inhibition [6] of 0% and an inhibition [7] of 0%. The fold change (FC) [8] was 0, the fold change (FC) (Homo sapiens) was 0.14 and the inhibition [9] was 4%.
`CC(C)[C@H](NC(=O)c1cc(-c2cnn3cc(-c4ccc(OCCN5CCCCC5)cc4)cnc23)cs1)C(F)(F)F` was tested, and the inhibition [10] was 14%, the inhibition [11] was 0% and the inhibition [12] was 3%. It also gave an inhibition [13] of 0%.

Reference: ChEMBL document CHEMBL5653631, “A Potent and Selective ULK1 Inhibitor Suppresses Autophagy and Sensitizes Cancer Cells to Nutrient Stress” (iScience, 2018)
